Results from patent US8557798.

Settings: from COC(=O)c1cccc(CN2C(=O)NC(C)(c3cccc(CCCN)c3)C2=O)c1; amide bond; sodium methoxide; MeOH; 7.5 mM; 85.0 °C; 96.0 h

CC12NC(=O)N(Cc3cccc(c3)C(=O)NCCCc3cccc1c3)C2=O (stereo not shown)
ring closure, yield of all isomers: 48%
